Laboratory results published in paper PMC12668304, “A Triple Threat Against Ovarian Cancer: Os(II)‐Pt(IV)‐Ceritinib Conjugates for Photodynamic Therapy, Chemotherapy, and Immunogenic Cell Death Induction” (Angewandte Chemie (International Ed. in English), 2025).
Where two headings read alike, the source gives them in different places.

Test system: A2780 cells
Assay: (Photo-)cytotoxicity on 2D cell monolayers, resazurin assay
Format: cell-based, human
Conditions: A2780, normoxic, dark, 4 h exposure, total 48 h incubation, read-out: IC50 Dark
Protocol: The 2D cytotoxicity and phototoxicity profiles of Os‐Pt‐Cer and controls, were evaluated in a panel of cancerous cell lines, including A2780 (ovarian carcinoma), A549 (non‐small cell lung carcinoma), and MCA205 (murine fibrosarcoma), as well as a non‐cancerous retinal pigment epithelial cell line (RPE‐1). Cells were treated with the compounds (0.003–100 µM) for 4 h, either kept in the dark or irradiated at 670 nm (13.5 J cm^− ^2) (Table S4 and Figure S22) or 740 nm (12.6 J cm^− ^2) and viability was assessed 44 h post‐treatment. To verify robustness, the incubation was extended to 72 h. […]
Human ovarian cancer (A2780) cells and mouse fibrosarcoma cells (MCA205) were cultured in RPMI media. Retinal pigment epithelium (RPE -1) cells were cultured in DMEM/F -12 medium. Lung cancer cells (A549) were cultured in F -12K medium. These cell lines were complemented with 10% of fetal bovine serum, 100 U/mL penicillin -streptomycin mixture, and maintained in a humidified atmosphere […]
(Photo-)cytotoxicity on 2D cell monolayers
The cytotoxicity of the compounds was assessed by measuring cell viability using a resazurin assay.
The cells were seeded in triplicates in 96 well plates with a density of 10 4 cells per well in 100 μL of media. After 24 h, the medium was removed, and the cells were treated with increasing concentrations (0.003 → 100 µM) of the compounds diluted in cell media , achieving a total volume of 100 μL/well.
The cells were incubated with the compound for 4 h (final incubation time 48 h) or 24 h (final incubation time 72 h). After this time, the media was removed and replaced with 100 μL of fresh medium. For the phototoxicity studies, the cells were exposed to light with an Atlas Photonics LUMOS BIO irradiation system. Each well was constantly irradiated at 670 nm (60 min, 13.50 J·cm-2) or 740 nm (60 min, 12.60 J·cm-2). During the irradiation, the temperature of the plate was maintained at 37 °C. The cells were grown in the incubator for an additional 44 or 48 h, respectively. For the determination of the dark cytotoxicity, the cells were not irradiated and after the medium exchange directly incubated for 44 h.
After this time, the medium was replaced with fresh medium containing resazurin (0.2 mg/mL). After […]
4 h of incubation, the conversion of resazurin into resorufin was determined upon excitation at 540 nm and measurement of its emission at 590 nm using a Cytation 5 Imaging Reader from BioTek. The obtained data was analysed with the GraphPad Prism software […]
After 24 h of incubation at 37 °C, 5% CO 2, plates were read using a SpectraMaxM2 Microplate Reader ( λexc = 540 nm; λread = 590 nm). Fluorescence data were normalised, and data were fitted using GraphPad Prism Software, and IC 50 was calculated by non - linear regression. Changes in the size and shape of MCTS were monitored every 24 h using Cytation 5 Imaging Reader from BioTek, objective x4.
Intracellular distribution by confocal fluorescence microscopy
10^4 cells/well (A2780 cells) were seeded in complete medium (RPMI) in µ -slide 8 well (Ibidi) (100 µl/well) and left for 24 h to attach to the bottom. Then, the culture medium was removed , and 100 µl of solution of the corresponding complexes (5 µM) was added. The complexes were incubated with the cells for 4 hours. Thereafter, the medium was removed and replaced by RPMI without phenol red , and Hoechst and MitoTracker Green were added at a final concentration of 1 µg/mL. They were incubated with the cells for 30 min in the dark at 37 °C. Images were collected in a sequential mode in a Leica TCS SP8 confocal microscope with a 60x oil immers ion objective, a line average of 4, and a format of […]
(MTG)→ 500 -550nm, and 488 nm (complexes)→ 680 -730 nm. The confocal pinhole was 1 Airy unit.
Images were analysed with LAS X Flim FCS software.
Intracellular distribution by ICP -MS

Structure (SMILES)	IC50 (Homo sapiens)	IC50
Cc1cc(Nc2ncc(Cl)c(Nc3ccccc3S(=O)(=O)C(C)C)n2)c(OC(C)C)cc1C1CCNCC1 [Ceritinib]	2.61 ± 0.5 µM	
O=C1[O][Pt]2([NH][C@@H]3CCCC[C@H]3[NH]2)[O]C1=O [Oxaliplatin]		46.15 ± 0.2 µM
